According to patent US6087375A, “Methods of treating or preventing thromboses” (priority 1999, dated 2000):

Key:
Assay type in all cases: binding
[1] = system: rabbit erythrocyte membrane and cytosolic proteins; assay: Immunoblotting and ELISA of rabbit erythrocyte ghost and cytosol fractions after conjugation
Method: Material and Methods: Rabbit erythrocytes were conjugated with the Argatroban-C6 NHS ester compound (compound YL-015-35). To do so, rabbit erythrocytes were isolated from fresh, citrated blood. In brief, an aliquot of blood was centrifuged for 5 minutes at 1800 rpm (Sorvall RC-5B, SH-3000 rotor). The buffy coat was pipetted off the top layer of the cell pellet and the remaining erythrocytes were washed four times with PBS, pH 7.4. Before the last wash, an aliquot of cells was removed for counting. The washed erythrocytes were resuspended at a density of 1×10^9 cells/mL. The total volume of cells labeled per sample was 3 mL. […] After the labeling reaction, the cells were centrifuged 4 minutes at 1800 rpm and the supernatant was discarded. The cells were resuspended in 10 ml of 0.5% DMSO/PBS and pelleted. The cells were washed one more time with 10 ml of PBS.
To quench any remaining reactive esters, the cells were then resuspended in 6 mg/mL BSA/PBS (Sigma, A-2934, lot 93HO291) and gently agitated at room temperature for 30 minutes. After quenching, the cells were washed five times with PBS. Cell yields were determined by cell counting.
After conjugation, the cells were hypotonically lysed and the ensuing membrane (ghost) and cytosol fractions were assayed by immunoblotting and ELISA. Specifically, conjugated erythrocyte pellets were chilled on ice for 5 minutes. Cells were then lysed on ice with 12 ml of ice-cold 5 mM phosphate buffer, pH 8.0 (PB) containing 1 mM Pefabloc and 40 μM leupeptin. Lysates were briefly vortexed and then centrifuged for 20 minutes at 4° C. at 15,000 rpm (SS-34, Sorvall RC-5B). The supernatant (hemolysate) was pipetted off the pellet, labeled and stored at 4° C. The pellets (ghosts) were washed four times with 12 ml of cold PBS and centrifuged as above. The protein content of the ghosts and hemolysates was determined by using the Micro BCA kit (Pierce; catalog no. 23231). Cell fractions were stored at -80° C.
Samples were then solubilized in 2×reducing cocktail (5% SDS, 50% glycerol, 0.5 M 2-mercaptoethanol in 0.25 M Tris-HCI, pH 6.8). […]

[2] = target: rabbit serum albumin (RSA) (Oryctolagus cuniculus, UniProt P49065); assay: Mass spectrometric analysis of conjugation to RSA (HPLC/ESIMS, MALDI-TOFMS); settings: for average argatroban derivative molecules added per RSA molecule / range of argatroban derivative molecules added per RSA molecule: MALDI-MS
Sequence of rabbit serum albumin (RSA) (P49065 25-608): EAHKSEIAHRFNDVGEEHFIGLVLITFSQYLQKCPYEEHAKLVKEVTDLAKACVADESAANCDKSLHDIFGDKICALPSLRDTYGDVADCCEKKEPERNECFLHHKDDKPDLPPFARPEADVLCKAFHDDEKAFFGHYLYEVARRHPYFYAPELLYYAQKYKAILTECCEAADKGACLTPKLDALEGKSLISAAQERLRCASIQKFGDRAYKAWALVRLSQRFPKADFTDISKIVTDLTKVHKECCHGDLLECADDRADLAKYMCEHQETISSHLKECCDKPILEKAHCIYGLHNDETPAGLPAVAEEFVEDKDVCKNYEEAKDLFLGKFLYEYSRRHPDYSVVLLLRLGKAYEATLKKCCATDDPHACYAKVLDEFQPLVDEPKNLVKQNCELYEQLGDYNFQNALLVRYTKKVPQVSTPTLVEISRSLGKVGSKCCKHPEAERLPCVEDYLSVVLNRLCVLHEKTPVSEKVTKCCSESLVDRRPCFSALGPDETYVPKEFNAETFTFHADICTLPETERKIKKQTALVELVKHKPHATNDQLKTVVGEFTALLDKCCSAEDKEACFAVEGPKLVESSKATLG
Method: (§1) All samples were analyzed using a high performance liquid chromatograph (HPLC) coupled in-line to an electrospray ionization (ESI) mass spectrometer (MS) which is termed HPLC/ESIMS. Some samples were also analyzed using a matrix-assisted laser desorption ionization (MALDI) time-of-flight (TOF) mass spectrometer which is termed (MALDI-TOFMS).
(§2) Samples for HPLC/ESIMS were either prepared as duplicate reaction samples or were part of the same reaction samples which were used in the ELISA assays described below. These samples were injected directly only the HPLC/ESIMS without any manipulation other than dilution with water, where the PBS, DMSO, and unreacted derivative molecules are separated from the protein-argatroban derivative molecule conjugate. Samples for MALDI-MS were first HPLC-purified and mixed 1:1 directly on the stainless steel analysis plate with a matrix of 10 mg/ml sinnapinic acid in 50% acetonitrile/50% water. The mixture was then dried with a gentle flow of air to allow for crystallization and inserted into the instrument for laser ionization.
(§3) The HPLC is a Hewlett Packard 1090 Series II liquid chromatogram with a diode array detector. The column used for separation is a Brownlee aquapore OD-300 reversed phase C18 column, 1 mm×10 cm, 300 Å pore size, 7 μm particle diameter. The mass spectrometer to which the HPLC is connected using fused Silica capillary tubing is a Sciex API-300 triple quadrupole mass spectrometer with an ionspray source to allow for atmospheric pressure ionization of a liquid flowing continuously into the instrument. The MALDI-TOFMS is a Perceptive Biosystems Voyager Elite DE instrument run in the linear mode.
The conjugate was prepared according to the following protocol. […] Sham samples consist of the RSA incubated for the same length of time at RT in 2% DMSO in PBS. Each of the samples was then concentrated to a final volume of 1.5 mL using Amicon Centricon 30 filtration/concentration devices. The concentrated samples were then desalted on Pierce's 5 ML Kwiksep excellulose plastic desalting columns. The excluded volumes containing RSA or argatroban-C6-RSA were then subjected to BCA microprotein estimation and lyophilization. In addition, these samples were analyzed by LC/MS, sandwich ELISA assays (described above) to measure thrombin binding and immunoblotting.

[3] = target: human serum albumin (HSA) (Homo sapiens, UniProt P02768); assay: Mass spectrometric analysis of conjugation to HSA (HPLC/ESIMS); settings: HSA 5 μM, 100 μM ester, 1 hour, room temperature
Sequence of human serum albumin (HSA) (P02768 25-609): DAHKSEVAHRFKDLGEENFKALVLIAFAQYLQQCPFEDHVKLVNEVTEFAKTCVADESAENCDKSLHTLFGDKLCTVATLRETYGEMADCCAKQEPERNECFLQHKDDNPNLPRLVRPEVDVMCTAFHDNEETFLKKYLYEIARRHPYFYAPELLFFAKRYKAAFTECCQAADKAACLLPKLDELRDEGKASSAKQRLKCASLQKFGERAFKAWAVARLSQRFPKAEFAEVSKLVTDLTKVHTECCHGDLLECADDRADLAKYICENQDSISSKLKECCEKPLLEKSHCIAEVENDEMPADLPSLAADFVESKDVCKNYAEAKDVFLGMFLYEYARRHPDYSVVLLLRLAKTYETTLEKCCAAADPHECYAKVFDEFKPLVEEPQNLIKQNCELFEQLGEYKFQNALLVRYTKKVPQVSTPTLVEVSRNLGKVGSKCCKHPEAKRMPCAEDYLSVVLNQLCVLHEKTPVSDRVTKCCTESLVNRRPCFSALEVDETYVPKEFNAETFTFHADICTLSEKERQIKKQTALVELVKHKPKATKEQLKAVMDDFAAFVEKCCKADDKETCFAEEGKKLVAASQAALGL
Method: as §1, §2, §3

[4] = concentration study, 10 μM ester, RSA 4.5 μM, HPLC/ESIMS

CC1CNc2c(cccc2S(=O)(=O)NC(CCCN=C(N)N)C(=O)N2CCC(C)CC2C(=O)NCCCCCC(=O)ON2C(=O)CCC2=O)C1 (stereo not shown) [compound YL-015-35]
labeled proteins belonging to the glycophorin family ([1]; capture ELISA assay): a portion of the thrombin inhibitor-labeled proteins belong to the glycophorin family of proteins | presence of derivatized argatroban molecules on cytosolic proteins ([1]; rabbit erythrocytes, cytosol fraction): at the limit of detection | covalent modification of erythrocyte membrane proteins ([1]; rabbit erythrocytes, immunoblotting): numerous erythrocyte membrane proteins were covalently modified | covalent addition of argatroban derivative molecules per RSA molecule ([2]; HPLC/ESIMS, RSA 4.5 μM, 100 μM ester, 1 hour, room temperature): 1-8 argatroban derivative molecules per RSA molecule | covalent addition of argatroban derivative molecules per RSA molecule ([2]; HPLC/ESIMS, RSA 15 μM, 200 μM ester): 1-9 argatroban derivative molecules per RSA molecule | covalent addition of argatroban derivative molecules per RSA molecule ([2]; HPLC/ESIMS, RSA 30 μM, 300 μM ester): 1-9 argatroban derivative molecules per RSA molecule | average argatroban derivative molecules added per RSA molecule ([2]; RSA 15 μM, 200 μM ester): 5.6 argatroban derivative molecules added per RSA molecule | range of argatroban derivative molecules added per RSA molecule ([2]; RSA 15 μM, 200 μM ester): 1-10 argatroban derivative molecules added per RSA molecule | average argatroban derivative molecules added per RSA molecule ([2]; RSA 30 μM, 300 μM ester): 5.4 argatroban derivative molecules added per RSA molecule | range of argatroban derivative molecules added per RSA molecule ([2]; RSA 30 μM, 300 μM ester): 1-10 argatroban derivative molecules added per RSA molecule | argatroban derivative molecules added ([2]; concentration study, 1 μM ester, RSA 4.5 μM, HPLC/ESIMS): no detectable argatroban derivative molecules | argatroban derivative molecules added [2, 4]: 1 argatroban derivative molecule | fraction of the RSA molecules to which 1 argatroban derivative molecule is added [2, 4]: ~ 50% | major species of RSA molecules ([2]; concentration study, 15 μM ester, RSA 4.5 μM): majority of RSA molecules are +1 | argatroban derivative molecules added per RSA molecule ([2]; concentration study, 15 μM ester, RSA 4.5 μM, HPLC/ESIMS): 0-3 argatroban derivative molecules per RSA molecule | major species of RSA molecules ([2]; concentration study, 20 μM ester, RSA 4.5 μM): majority of RSA molecules are +1 and +2 | argatroban derivative molecules added per RSA molecule ([2]; concentration study, 20 μM ester, RSA 4.5 μM, HPLC/ESIMS): 1-3 argatroban derivative molecules per RSA molecule | major species of RSA molecules ([2]; concentration study, 25 μM ester, RSA 4.5 μM): majority of RSA molecules are +1 and +2 | argatroban derivative molecules added per RSA molecule ([2]; concentration study, 25 μM ester, RSA 4.5 μM, HPLC/ESIMS): 1-4 argatroban derivative molecules per RSA molecule | major species of RSA molecules ([2]; concentration study, 100 μM ester, RSA 4.5 μM): no major species | argatroban derivative molecules added per RSA molecule ([2]; concentration study, 100 μM ester, RSA 4.5 μM, HPLC/ESIMS): 2-10 argatroban derivative molecules per RSA molecule | covalent addition of argatroban derivative molecules per HSA molecule [3]: 1-8 argatroban derivative molecules per HSA molecule
